Reference: US20190031618A1, “BENZIMIDAZOLE DERIVATIVES USEFUL AS CB-1 INVERSE AGONISTS” (Janssen Pharmaceutica NV, priority 2015, published 2019)

How the values were obtained:
[1] = target: Human CB2R (Cannabinoid receptor 2) (Homo sapiens, UniProt P34972); experiment: CB-2 in vitro cAMP (HTRF) assay; assay type: cell-based; settings: HEK cells, cAMP HTRF, 250 nM forskolin; mean where tested more than once; read-out: CB2 HEK_cAMP EC50
Excerpt: (§1) CB1 and CB2 receptors are Gi-coupled GPCR. Activation of CB1 and CB2 receptors results in a decrease in cAMP production. An inverse agonist of the CB1 or CB2 receptor results in the opposite effect, an increase of cAMP production. The principle of this assay is based on HTRF® technology (Homogeneous Time-Resolved Fluorescence). The method is a competitive immunoassay between native cAMP produced by cells and the cAMP labeled with the fluorophore d2. The tracer binding is quantified by a Mab anti-cAMP labeled with Eu3+TBP-NHS Cryptate (supplied as part of the assay kit). The specific signal (i.e. energy transfer) is inversely proportional to the concentration of cAMP in the standard or sample.
Human CB1R (Cannabinoid receptor 1) was stably transfected in HEK-293 cells (DiscoveRx, cat: 93-0200C1). Human CB2R (Cannabinoid receptor 2) was stably transfected in HEK-293 cells (DiscoveRx, cat: 93-0201C1). Cell cultures were maintained in media: DMEM (Invitrogen Cat#12430-054) supplemented with 10% HI FBS (Invitrogen Cat#16140-071), 1% L-glutamine (Invitrogen Cat#25030-081), 0.2 mg/ml Hygromycin B (Invitrogen Cat#10687-010), 600 μg/mL G418 (Invitrogen Cat#10131-035), and 1× Penn/Strep (Invitrogen 15140-122). After cell expansion, aliquots were cryo-stored in media containing 5% DMSO (Pierce Cat#20684).
(§2) One day prior to experiments media was warmed to 37° C. and the cryo-stored cells were thawed in a 37° C. water bath. The cells were then added to media (10× volume) and the mixture was centrifuged at 1000 RPM for 5 min. The supernate was removed and the cells were re-suspended in media. A sample of the cell suspension was evaluated on a Cedex XS automated cell counter (Innovatis Systems) to determine viable cells/ml. Additional media was added to the cells to achieve a final cell density of 4E5 cells/mL. The cells were then plated into 384 well PDL white solid bottom plates (Greiner, Cat#781945) at 20 μL per well using a Multidrop (Thermo Scientific). Cells were removed from Row P (location of cAMP standards). Two columns of cells were plated into a clear bottom 384 well PDL coated plate (Greiner, Cat#781944) to view confluence the day of the assay. The cell plates were lidded and stored for 15 minutes in a hood, then transferred to an incubator (37° C., 5% CO2, 95% humidity) overnight.
DMSO was added to all wells of 384 well V bottom polystyrene plate (Greiner, Cat#781280) except to columns 1 and 13, rows O and P and wells M13-M23 and N13-N23. Test compounds (60 μL, 10 mM) were added to Column 1 and 13 (A1 through N1 and A13 through L13). Test compounds were serially diluted 1/3 by transferring and mixing 20 μl sample with 40 μL DMSO.
DMSO (40 μL) was added to wells of 384 well V bottom polystyrene plate: O2 through O11, M14 through M23, N14 through N23, and O14 through O23. AM630 (also known as [6-iodo-2-methyl-1-[2-(4-morpholinyl)ethyl]-1H-indol-3-yl](4-methoxyphenyl)-methanone, Cayman Chemical, Cat#10006974) (60 μL, 10 mM) was added to O1; and 1-(2,4-dichlorophenyl)-7-[(4-fluorophenyl)methylene]-4,5,6,7-tetrahydro-N-1-piperidinyl-1H-benzimidazole-3-carboxamide (60 μL, 10 mM) was added to N13. The control was serially diluted 1/3 by transferring and mixing 20 μl sample with 40 μL DMSO. This process resulted 11 doses per control, 10 mM to […].
Cells plated the day prior to the assay in clear bottom plates were viewed on an inverse microscope to ensure confluency in the range of 60-75%. […]

[2] = target: Human CB1R (Cannabinoid receptor 1) (Homo sapiens, UniProt P21554); experiment: CB-1 in vitro cAMP (HTRF) assay; assay type: cell-based; settings: HEK cells, cAMP HTRF, 250 nM forskolin; mean where tested more than once; read-out: CB1 HEK_cAMP EC50
Sequence of Human CB1R (Cannabinoid receptor 1) (P21554 whole entry): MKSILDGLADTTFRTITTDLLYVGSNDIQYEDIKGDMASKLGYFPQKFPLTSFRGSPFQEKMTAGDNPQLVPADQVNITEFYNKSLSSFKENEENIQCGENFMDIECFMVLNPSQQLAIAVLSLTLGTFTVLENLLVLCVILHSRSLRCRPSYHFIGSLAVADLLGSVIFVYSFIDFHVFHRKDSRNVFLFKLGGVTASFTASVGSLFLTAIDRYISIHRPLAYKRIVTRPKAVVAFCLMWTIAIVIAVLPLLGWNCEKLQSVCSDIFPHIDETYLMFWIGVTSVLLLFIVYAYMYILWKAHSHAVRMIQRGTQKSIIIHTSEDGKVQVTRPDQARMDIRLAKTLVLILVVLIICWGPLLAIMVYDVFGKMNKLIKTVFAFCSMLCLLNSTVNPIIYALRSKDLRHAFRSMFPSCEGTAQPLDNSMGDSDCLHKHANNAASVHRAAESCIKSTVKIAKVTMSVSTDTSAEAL
Excerpt: as §1
Human CB1R (Cannabinoid receptor 1) was stably transfected in HEK-293 cells (DiscoveRx, cat: 93-0200C1). Human CB2R (Cannabinoid receptor 2) was stably transfected in HEK-293 cells (DiscoveRx, cat: 93-0201C1).
as §2, with “The cells were then plated into 384 well PDL white solid bottom plates (Greiner, Cat#781945) at 20 μL per well using a Multidrop (Thermo Scientific).” left out, “Two columns of cells were plated into a clear bottom 384 well PDL coated plate (Greiner, Cat#781944) to view confluence the day of the assay.” left out
Test compounds (60 μL, 10 mM) were added to Column 1 and 13 (A1 through N1 and A13 through L13). Test compounds were serially diluted 1/3 by transferring and mixing 20 μl sample with 40 μL DMSO.
DMSO (40 μL) was added to wells of 384 well V bottom polystyrene plate: O2 through O11, M14 through M23, N14 through N23, and O14 through O23. […] The control was serially diluted 1/3 by transferring and mixing 20 μl sample with 40 μL DMSO. This process resulted 11 doses per control, 10 mM to 0.5 μM.
Cells plated the day prior to the assay in clear bottom plates were viewed on an inverse microscope to ensure confluency in the range of 60-75%.
A FLEXDROP (Perkin Elmer) was cleaned with ethanol then water, and primed with Buffer 2. A 384 well V bottom polypropylene plate containing d2 labelled cAMP and a second 384 well V bottom polypropylene plate containing anti-cAMP was prepared (50 μl per well). Media as “dumped” from the cell plate and 30 μL Buffer 1 was added to each well using a Multidrop. The content of the cell plate was again “dumped” and 10 μL Buffer 2 was added to each well using a Flexdrop. […] The cell plate was mixed (Speed 6, Lab-Line Instruments Titer Plate Shaker) and centrifuged (1000 RPMs, 1 min). […] The cell plate was again mixed (speed 6) and centrifuged (1000 RPMs, 1 min). The cell plate was incubated for 30 minutes at room temperature (˜27° C.). The contents of row P were removed and the cAMP standard dilutions were added in duplicate to Row P (P1-12 and P13-24). After incubation, 6 μL d2 labelled cAMP and 6 μL of Anti-cAMP were added to all wells of the cell plate using a BioMek FX (Beckman Coulter). The cell plate was again mixed (speed 6) and centrifuged (1000 RPMs, 1 min) and was incubated for 60 minutes in the dark at room Temp (˜27° C.).
After this final incubation, the cell plate was read in HTRF mode (fluorescence at 665 nm and 620 nm) on an Envision plate Reader (Perkin Elmer). The Envision reader outputs a ratio of channel 1/channel 2 fluorescence×10,000 (Normalized signal (NS)). Amount of cAMP in nM was calculated for each well (based on NS) from a cAMP standard curve located on each plate (at P1-12 and P13-24). EC50 values were determined from a 4-point fit (Hill equation) of a single 11-point compound dosing. Hill slope was fixed at 1.0.

Sequence of Human CB2R (Cannabinoid receptor 2) (P34972 whole entry): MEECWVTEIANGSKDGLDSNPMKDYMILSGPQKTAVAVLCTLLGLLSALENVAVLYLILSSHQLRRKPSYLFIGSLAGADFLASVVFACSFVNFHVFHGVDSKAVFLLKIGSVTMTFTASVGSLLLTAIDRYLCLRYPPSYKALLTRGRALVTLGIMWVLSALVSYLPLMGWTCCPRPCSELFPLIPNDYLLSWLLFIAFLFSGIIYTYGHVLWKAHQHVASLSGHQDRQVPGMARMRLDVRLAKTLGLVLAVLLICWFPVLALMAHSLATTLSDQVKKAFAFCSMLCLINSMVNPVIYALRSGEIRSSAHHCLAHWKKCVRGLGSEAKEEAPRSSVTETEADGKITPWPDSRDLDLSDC

Structure (SMILES) | EC50 [1] [µM] | EC50 [2] [µM]
NC(=O)c1cccc(CN2CCC(n3c(C4CC4)nc4ccc(C(c5ccc(Cl)cc5)c5ccc(Cl)cc5)cc43)CC2)c1 [Example 141] | > 10 | 0.0033
O=C(O)c1cccc(CN2CCC(n3c(C4CC4)nc4ccc(C(c5ccccc5)c5ccc(Cl)cc5)cc43)CC2)c1 (centres unmarked) [Example 101] | > 10 | 0.0285
Cc1nc2ccc(C(c3ccc(Cl)cc3)c3nccs3)cc2n1C1Cc2ccccc2C1 (centres unmarked) [Example 361] | > 10 | 2.02
CCc1csc(C(c2ccc(Cl)cc2)c2ccc3nc(C)n(Cc4ccc(Cl)cc4)c3c2)n1 (centres unmarked) [Example 452] | > 6.7 | 0.813
COc1cc(S(=O)(=O)N2CCC(n3c(C4CC4)nc4ccc(C(CO)(c5ccc(Cl)cc5)c5ccc(Cl)cc5)cc43)CC2)ccc1C(=O)O [Example 193] | > 10 | > 10
O=C(O)CCc1nc2ccc(C(c3ccc(Cl)cc3)c3ccc(Cl)cc3)cc2n1C1CCN(S(=O)(=O)C(F)(F)F)CC1 [Example 78] | > 21 | 0.151
CCc1nc2ccc(C(CO)(c3ccc(Cl)cc3)c3ccc(Cl)cc3)cc2n1C1CCN(S(=O)(=O)C(F)(F)F)CC1 [Example 244] | > 10 | 0.534
CCOC(=O)c1nc2ccc(C(c3ccc(Cl)cc3)c3nccs3)cc2n1C1CCN(C(=O)OCC)CC1 (centres unmarked) [Example 413] | > 10 | 0.315
CCOC(=O)N1CCC(n2c(-c3ccc(Cl)cc3)nc3ccc(C(c4ccc(Cl)cc4)c4nccs4)cc32)CC1 (centres unmarked) [Example 418] | > 10 | 1.08
CCOC(=O)N1CCC(n2c(C(F)(F)F)nc3ccc(C(c4ccc(Cl)cc4)c4nccs4)cc32)CC1 (centres unmarked) [Example 415] | > 10 | > 10
CC(C(O)c1ccccc1)n1c(C2CC2)nc2ccc(C(c3ccc(Cl)cc3)c3ccc(Cl)cc3)cc21 (centres unmarked) [Example 299] | 1.03 | 0.578
O=C(O)c1cccc(OCCn2c(C3CC3)nc3ccc(C(c4ccc(Cl)cc4)c4ccc(Cl)cc4)cc32)c1 [Example 23] | 1.88 | 0.182
NC(=O)COc1ccc(Cn2c(C3CC3)nc3ccc(C(c4ccc(Cl)cc4)c4ccc(Cl)cc4)cc32)cc1 [Example 182] | 2.93 | 0.255
CC(C)(C)OC(=O)N1CCC(n2c(C3CC3)nc3ccc(C(O)(c4ccc(Cl)cc4)c4ccc(Cl)cc4)cc32)CC1 [Example 41] | > 42 | 0.0306
O=S(=O)(N1CCC(n2c(-c3cccnc3)nc3ccc(C(c4ccc(Cl)cc4)c4nccs4)cc32)CC1)C(F)(F)F (centres unmarked) [Example 393] | 0.063 | 0.028
O=C(O)c1ccc(Cl)c(CN2CCC(n3c(C4CC4)nc4ccc(C(c5ccc(Cl)cc5)c5ccc(Cl)cc5)cc43)CC2)c1 [Example 94] | 4.76 | 0.0261
CCCc1nc2ccc(C(c3ccc(Cl)cc3)c3nccs3)cc2n1-c1cccc(Cl)c1 (centres unmarked) [Example 431] | > 10 | 0.111
O=C(O)COc1ccc(S(=O)(=O)N2CCC(n3c(C4CC4)nc4ccc(C(c5ccc(Cl)cc5)c5ccc(Cl)cc5)cc43)CC2)cc1 [Example 256] | > 10 | 0.129
O=S(=O)(N1CCC(n2c(C3CCCO3)nc3ccc(C(c4ccc(Cl)cc4)c4ccc(Cl)cc4)cc32)CC1)C(F)(F)F (centres unmarked) [Example 271] | > 10 | 0.0021
CNC(=O)c1cccc(S(=O)(=O)N2CCC(n3c(C4CC4)nc4ccc(C(c5ccc(Cl)cc5)c5ccc(Cl)cc5)cc43)CC2)c1 [Example 186] | > 10 | 0.0253
O=S(=O)(N1CCC(n2c(C3CCC3)nc3ccc(C(c4ccc(Cl)cc4)c4nccs4)cc32)CC1)C(F)(F)F (centres unmarked) [Example 391] | > 10 | 0.06
O=S(=O)(N1CCC(n2c(C3CCC3)nc3ccc(C(O)(c4ccc(Cl)cc4)c4ccc(Cl)cc4)cc32)CC1)C(F)(F)F [Example 319] | > 10 | 0.0225
O=C(O)c1ccc(Cn2c(C3CC3)nc3ccc(C(c4ccc(Cl)cc4)c4ccc(Cl)cc4)cc32)cc1 [Example 132] | > 10 | > 10
COC(=O)c1cccc(-n2c(C3CC3)nc3ccc(C(c4ccc(Cl)cc4)c4ccc(Cl)cc4)cc32)c1 [Example 174] | > 10 | 6.55
O=C(NCCO)c1ccc(S(=O)(=O)N2CCC(n3c(C4CC4)nc4ccc(C(c5ccc(Cl)cc5)c5ccc(Cl)cc5)cc43)CC2)cn1 [Example 204] | > 10 | 0.0944
O=C(O)c1ccnc(CN2CCC(n3c(C4CC4)nc4ccc(C(c5ccc(Cl)cc5)c5ccc(Cl)cc5)cc43)CC2)c1 [Example 88] | > 10 | 0.033
O=C(O)Cc1cccc(N2CCC(n3c(C4CC4)nc4ccc(C(c5ccc(Cl)cc5)c5ccc(Cl)cc5)cc43)CC2)c1 [Example 158] | 5.8 | 0.0679
NS(=O)(=O)c1ccc(C(=O)N2CCC(n3c(C4CC4)nc4ccc(C(c5ccc(Cl)cc5)c5ccc(Cl)cc5)cc43)CC2)cc1 [Example 230] | 5.9 | 0.0919
